For three compounds, EC50 results are on record in PubChem BioAssay AID651914 (NMMLSC, 2012).

This test deals with AM2.2-GPR32 FAP cells, fluorogen binding, flow cytometry MCF. Description: fluorogen binding to FAP-tagged GPR32, dose response, counter-screen for beta2AR agonist internalization project, AM2.2 cells, flow cytometry, powder set 5 (AID 651914).
For `CN(CC(=O)N1CCN(c2ccc(F)cc2)CC1)S(=O)(=O)c1ccc(Br)cc1`, the EC50 was 410 nM.

For the compound `Cc1cccc(C(=O)Nc2ccc(S(=O)(=O)N3CCCCC3C)cc2)c1` (stereo not drawn), the EC50 was 2900 nM.

Consider `CCC(=O)Nc1ccc(S(=O)(=O)N2CCCCC2CC)cc1` (stereo not drawn), for which the EC50 is 7.5 nM.
